The text below walks through data of PMC7201885 (The Journal of General Physiology, 2020).

The target of one assay is nvTRPM2 (Nematostella vectensis, UniProt A7T1N0). Put plainly: Inside-out patch-clamp, full-length. The class given is cell-based. The note with it: for Mode of action on nvTRPM2: compared with ADPR; for Maximal fractional activation: relative to current in 100 µM ADPR. (In general: The patch-clamp technique gives a direct electrical read-out from membranes.)
The next assay deals with hsTRPM2. The note with it: cited from earlier work.
The target in the next assay is R271A nvTRPM2 (Nematostella vectensis, UniProt A7T1N0, R271A). Nature of the assay: Inside-out patch-clamp, R271A nvTRPM2. Type of assay: cell-based.
Sequence of R271A nvTRPM2 (A7T1N0 whole entry R271A): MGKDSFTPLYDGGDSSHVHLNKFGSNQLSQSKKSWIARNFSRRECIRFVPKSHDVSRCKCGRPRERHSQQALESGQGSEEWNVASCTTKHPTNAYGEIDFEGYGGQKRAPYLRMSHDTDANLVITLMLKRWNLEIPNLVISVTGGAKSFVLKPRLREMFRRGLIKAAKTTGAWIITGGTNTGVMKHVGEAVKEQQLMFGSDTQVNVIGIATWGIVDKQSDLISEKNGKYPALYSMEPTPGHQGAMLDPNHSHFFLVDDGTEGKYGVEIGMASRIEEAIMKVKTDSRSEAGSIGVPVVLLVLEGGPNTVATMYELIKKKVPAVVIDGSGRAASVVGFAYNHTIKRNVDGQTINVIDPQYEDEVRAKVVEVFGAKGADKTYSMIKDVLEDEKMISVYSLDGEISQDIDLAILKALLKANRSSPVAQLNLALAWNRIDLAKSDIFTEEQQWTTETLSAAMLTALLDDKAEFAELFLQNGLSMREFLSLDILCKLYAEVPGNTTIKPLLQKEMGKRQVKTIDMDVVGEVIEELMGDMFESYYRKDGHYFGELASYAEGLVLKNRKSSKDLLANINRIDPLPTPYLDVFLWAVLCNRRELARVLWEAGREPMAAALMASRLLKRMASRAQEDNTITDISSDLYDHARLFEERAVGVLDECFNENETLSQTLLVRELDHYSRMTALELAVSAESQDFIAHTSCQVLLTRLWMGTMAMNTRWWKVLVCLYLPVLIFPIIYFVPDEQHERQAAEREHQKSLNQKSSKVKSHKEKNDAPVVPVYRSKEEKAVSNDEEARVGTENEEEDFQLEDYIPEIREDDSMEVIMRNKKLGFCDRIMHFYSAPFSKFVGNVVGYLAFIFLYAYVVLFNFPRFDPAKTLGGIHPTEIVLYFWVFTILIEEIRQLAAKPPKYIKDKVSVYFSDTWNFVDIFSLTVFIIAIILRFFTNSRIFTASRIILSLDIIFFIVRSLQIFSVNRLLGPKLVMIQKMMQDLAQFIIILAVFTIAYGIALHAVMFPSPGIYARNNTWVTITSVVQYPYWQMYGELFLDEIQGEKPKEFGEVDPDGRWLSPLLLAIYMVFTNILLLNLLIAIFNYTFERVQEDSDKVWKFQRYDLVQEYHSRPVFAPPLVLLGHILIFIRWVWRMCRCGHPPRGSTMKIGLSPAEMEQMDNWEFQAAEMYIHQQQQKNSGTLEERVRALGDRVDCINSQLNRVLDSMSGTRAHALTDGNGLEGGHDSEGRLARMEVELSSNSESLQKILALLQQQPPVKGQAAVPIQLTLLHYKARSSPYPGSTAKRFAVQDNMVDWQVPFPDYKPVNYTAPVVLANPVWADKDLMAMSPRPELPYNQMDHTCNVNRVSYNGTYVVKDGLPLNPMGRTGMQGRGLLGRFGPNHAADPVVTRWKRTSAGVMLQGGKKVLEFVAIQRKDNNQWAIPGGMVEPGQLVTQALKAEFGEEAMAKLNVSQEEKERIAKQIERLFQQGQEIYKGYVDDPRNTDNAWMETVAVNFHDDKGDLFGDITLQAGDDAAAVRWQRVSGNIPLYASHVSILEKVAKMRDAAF
Another assay deals with T179A nvTRPM2 (Nematostella vectensis, UniProt A7T1N0, T179A). Put plainly: Inside-out patch-clamp, T179A nvTRPM2. The class given is cell-based.
Sequence of T179A nvTRPM2 (A7T1N0 whole entry T179A): as the sequence (A7T1N0 whole entry R271A) above, with T179A, A271R counted along it
The next assay has as its target T143A nvTRPM2 (Nematostella vectensis, UniProt A7T1N0, T143A). Put plainly: Inside-out patch-clamp, T143A nvTRPM2. Type of assay: cell-based.
The target in the next assay is R329A nvTRPM2 (Nematostella vectensis, UniProt A7T1N0, R329A). Put plainly: Inside-out patch-clamp, R329A nvTRPM2. The class given is cell-based.
Sequence of R329A nvTRPM2 (A7T1N0 whole entry R329A): as the sequence (A7T1N0 whole entry R271A) above, with A271R, R329A counted along it
The target of a further assay is T307A nvTRPM2 (Nematostella vectensis, UniProt A7T1N0, T307A). Put plainly: Inside-out patch-clamp, T307A nvTRPM2. The class given is cell-based.
Sequence of T307A nvTRPM2 (A7T1N0 whole entry T307A): as the sequence (A7T1N0 whole entry R271A) above, with A271R, T307A counted along it
A further assay concerns the target Y264A nvTRPM2 (Nematostella vectensis, UniProt A7T1N0, Y264A). Put plainly: Inside-out patch-clamp, Y264A nvTRPM2. Type of assay: cell-based.
[1] abbreviates: full-length nvTRPM2, 125 µM Ca2+.
[2] abbreviates: read-out: EC50 for nvTRPM2 channel activation, full-length nvTRPM2, 125 µM cytosolic Ca2+, Hill fit, −20 mV.
[3] abbreviates: read-out: EC50 for channel activation, 125 µM Ca2+ + 2.5 µM PIP2.
[4] abbreviates: read-out: EC50 for channel activation by Ca2+ (fractional Po), saturating ADPRP (100 µM) + 2.5 µM PIP2.
The mark [5] stands for this setting: saturating ADPRP (100 µM) + 2.5 µM PIP2.
Where [6] appears, read: read-out: EC50 for channel activation by Ca2+ (fractional Po), saturating ADPRP (1,000 µM) + 2.5 µM PIP2.
Where [7] appears, read: saturating ADPRP (1,000 µM) + 2.5 µM PIP2.
The mark [8] stands for this setting: 25 µM PIP2, 125 µM Ca2+ + 3.2 mM ADPR.
The mark [9] stands for this setting: 2.5 and 25 µM PIP2, 125 µM Ca2+ + 3.2 mM ADPR.

Values joined by “and” are separate entries in the source; they are usually repeats but may differ in a detail not shown here. Equal entries are not always repeated. Where two headings read alike, the source gives them in different places.

Sequence of Y264A nvTRPM2 (A7T1N0 whole entry Y264A): as the sequence (A7T1N0 whole entry R271A) above, with Y264A, A271R counted along it
Sequence of nvTRPM2 (A7T1N0 whole entry): as the sequence (A7T1N0 whole entry R271A) above, with A271R counted along it
Sequence of T143A nvTRPM2 (A7T1N0 whole entry T143A): as the sequence (A7T1N0 whole entry R271A) above, with T143A, A271R counted along it

For the compound `Nc1ncnc2c1ncn2[C@H]1C[C@H](O)[C@@H](COP(=O)(O)OP(=O)(O)OC[C@H]2OC(O)[C@H](O)[C@@H]2O)O1` (some centres unmarked) [dADPR, 2′-deoxy-ADPR], on nvTRPM2 (125 µM Ca2+), the “Mode of action on nvTRPM2” value is “similarly efficacious and potent as ADPR”; the Maximal fractional activation is recorded as 1.1 ± 0.04. Moreover, at nvTRPM2 (setting [1]), the “Hill coefficient nH for channel activation” value was 1.3 ± 0.2. The EC50 – broadly, the concentration giving half of the maximal effect – at nvTRPM2 (setting [2]) is ~2700 nM and 2700 nM. Moreover, the “Mode of action on hsTRPM2” value with hsTRPM2 (larger maximal whole-cell currents compared with ADPR, ref Fliegert et al., 2017) is “super-agonist”.
Turning to `Nc1ncnc2c1ncn2[C@@H]1O[C@H](COP(=O)(O)OP(=O)(O)OC[C@H]2O[C@@H](O)C(O)[C@H]2O)C(O)[C@@H]1OP(=O)(O)O` (some centres unmarked) [ADPRP, ADPR-2′-phosphate], the “Hill coefficient nH for channel activation” value was determined as 1.7 ± 0.2 on R271A nvTRPM2 (125 µM Ca2+ + 2.5 µM PIP2); 1.4 ± 0.2 on T179A nvTRPM2 (125 µM Ca2+ + 2.5 µM PIP2); 1.8 ± 0.1 at T143A nvTRPM2 (125 µM Ca2+ + 2.5 µM PIP2); 1.8 ± 0.2 on nvTRPM2 (WT nvTRPM2, 125 µM Ca2+ + 2.5 µM PIP2); 2.1 ± 0.4 on nvTRPM2 (setting [1]); 2.1 ± 0.2 at R329A nvTRPM2 (125 µM Ca2+ + 2.5 µM PIP2). Besides, the “Hill coefficient nH for channel activation” value worked out at 1.6 ± 0.2 on T307A nvTRPM2 (125 µM Ca2+ + 2.5 µM PIP2) and 1.8 ± 0.3 on Y264A nvTRPM2 (125 µM Ca2+ + 2.5 µM PIP2). Besides, the EC50 is 89 ± 5 nM on R271A nvTRPM2 (setting [3]); 3900 ± 500 nM at T179A nvTRPM2 (setting [3]); 1500 ± 100 nM at T143A nvTRPM2 (setting [3]); 310 ± 20 nM on nvTRPM2 (read-out: EC50 for channel activation, WT nvTRPM2, 125 µM Ca2+ + 2.5 µM PIP2); about 400 nM at nvTRPM2 (setting [2]); 13000 ± 1000 nM in the assay with hsTRPM2 (read-out: EC50 for hsTRPM2, activation, inside-out patches, saturating cytosolic Ca2+, ref Tóth et al., 2015). Moreover, the EC50 on T307A nvTRPM2 (setting [3]) is 12000 ± 1000 nM. The “Mode of action on nvTRPM2” value at nvTRPM2 (125 µM Ca2+) is given as “full agonist”. Besides, the “Potency for activating WT nvTRPM2 relative to ADPR” value on nvTRPM2 (EC50 ratio versus ADPR) was “approximately fivefold”. At nvTRPM2 (125 µM Ca2+), this compound had a Maximal fractional activation of 1.06 ± 0.03. Moreover, the “Mode of action on hsTRPM2” value in the assay with hsTRPM2 (ref Tóth et al., 2015) was “low-affinity partial agonist”.
`[Ca+2]` [Ca^2+]: the EC50 at R271A nvTRPM2 (read-out: EC50 for channel activation by Ca2+ (fractional Po), saturating ADPRP (10 µM) + 2.5 µM PIP2) was 1680 ± 40 nM; on T179A nvTRPM2 (setting [4]) it was 1800 ± 100 nM; at T143A nvTRPM2 (setting [4]), 640 ± 20 nM; on R329A nvTRPM2 (setting [6]), 1100 ± 40 nM; on T307A nvTRPM2 (setting [6]) it was 930 ± 50 nM; on Y264A nvTRPM2 (setting [6]) it was 2000 ± 100 nM. Besides, the “Hill coefficient nH for activation by Ca2+” value at R271A nvTRPM2 (saturating ADPRP (10 µM) + 2.5 µM PIP2) turned out to be 3.0 ± 0.2; at T179A nvTRPM2 (setting [5]) it was 2.3 ± 0.1; at T143A nvTRPM2 (setting [5]), 2.3 ± 0.2; on nvTRPM2 (WT, saturating ADPRP (10 µM) + 2.5 µM PIP2), 1.7 ± 0.2; on R329A nvTRPM2 (setting [7]), 2.0 ± 0.2; on T307A nvTRPM2 (setting [7]), 1.9 ± 0.2. For the same compound, the “Hill coefficient nH for activation by Ca2+” value at Y264A nvTRPM2 (setting [7]) stood at 1.8 ± 0.1.
On to `CCCCCCCC(=O)OC[C@H](COP(=O)(O)O[C@@H]1[C@H](O)[C@H](O)[C@@H](OP(=O)(O)O)[C@H](OP(=O)(O)O)[C@H]1O)OC(=O)CCCCCCC` [PIP2, phosphatydyl-inositol-4-5-bisphosphate], for which the “Stimulation of macroscopic current by exogenous PIP2” value at R271A nvTRPM2 (setting [8]) is on record as “approximately twofold”; on T179A nvTRPM2 (setting [8]), about 80 fold; at T143A nvTRPM2 (setting [9]) it was “small fractional stimulation”; on nvTRPM2 (WT, 125 µM Ca2+ + 3.2 mM ADPR), “only marginal additional stimulation”; at T307A nvTRPM2 (setting [9]), “small fractional stimulation”; on Y264A nvTRPM2 (setting [8]), about 40 fold.
As for `O=P(O)(OC[C@H]1OC(O)[C@H](O)[C@@H]1O)OP(=O)(O)OC[C@H]1O[C@@H](n2cnc3c2ncn2ccnc32)[C@H](O)[C@@H]1O` (some centres unmarked) [ε-ADPR, 1,N^6-ethenoadenosine-5′-O-diphosphoribose], the “Mode of action on nvTRPM2” value on nvTRPM2 (125 µM Ca2+) was “low-affinity antagonist”. Moreover, on nvTRPM2 (200 µM, 125 µM cytosolic Ca2+), the “Current induced by the analogue alone” value is on record as “only tiny currents”. Further, the “Reduction of currents elicited by 3.2 µM ADPR” value at nvTRPM2 (coapplication of 200 µM ε-ADPR, 125 µM Ca2+) is listed as about 25%. The “Mode of action on hsTRPM2” value in the assay with hsTRPM2 (ref Iordanov et al., 2016) is on record as “low-affinity antagonist”.
